Structures are written as SMILES. Where two headings read alike, the source gives them in different places.

The test system of data set [1] is IL-1β cytokine output from THP-1s. The data set can be described thus: THP-1 AlphaLISA IL-1β cytokine assay. In kind it is cell-based, human. The following applies: read-out: IL-1β (IC50). As for the experimental part:
Measuring Inhibitory Effects on IL-1β and IL-6 Cytokine Output from THP-1s
The cytokine inhibition profiles of compounds of formula (IW-1) were determined in a differentiated THP-1 cell assay. All assays were performed in RPMI-1640 growth medium (Gibco), supplemented with 10% fetal bovine serum (FBS; Gibco), 1% penicillin-streptomycin and 1% sodium pyruvate unless specified otherwise. The IL-1β and IL-6 cytokine inhibition assays were each run in a background of differentiated THP-1 cells as described below. All reagents described were from Sigma-Aldrich unless specified otherwise. Compounds were prepared as 10 mM DMSO stocks.
THP-1 cells were expanded as a suspension up to 80% confluence in appropriate growth medium. Cells were harvested, suspended, and treated with an appropriate concentration of phorbol 12-myristate 13-acetate (PMA) over a 72 hr period (37° C./5% CO2).
Following 72 hrs of THP-1 cell incubation, cellular medium was removed and replaced with fresh growth media containing 1% of FBS. Working concentrations of compounds were prepared separately in 10% FBS treated growth medium and pre-incubated with the cells for 30 minutes (37° C./5% CO2). Following the 30 minute compound pre-incubation, THP-1s were treated with an appropriate concentration of LPS and the THP-1s were subsequently incubated for a 24 hr period (37° C./5% CO2). An appropriate final concentration of Nigericin was then dispensed into the THP-1 plates and incubated for 1 hour (37° C./5% CO2) before THP-1 supernatants were harvested and collected in separate polypropylene 96-well holding plates.
Reagents from each of the IL-1β and IL-6 commercial kits (Perkin Elmer) were prepared and run according to the manufacturer's instructions. Subsequently, fluorescence signal detection in a microplate reader was measured (EnVision® Multilabel Reader, Perkin Elmer).
Percentage inhibition was calculated per cytokine by normalising the sample data to the high and low controls used within each plate (+/−LPS respectively). Percentage inhibition was then plotted against compound concentration and the 50% inhibitory concentration (IC50) was determined from the resultant concentration-response curve.

Data set [2] in a line: Mouse pharmacokinetic study, intravenous dosing. Type of data set: in vivo. The following applies: male, C57BL/6, mouse, iv, plasma, 10 mg/kg i.v., read-out: Parent compound concentration following intravenous administration. The method, then:
(§1) Pharmacokinetic studies were carried out in 6-8-week-old male C57BL/6 mice having free access to food and water. Intravenous dosing was conducted at 10 mg/kg (5 mL/kg; vehicle: 10% DMSO-90% (25% HP-13-CD in water)) via tail vein injection, with sampling at 3 min, 8 min, 15 min, 30 min, 1, 2, 4, 6 and 8 hours, i.e., 9 time points in total (N=3/time point), using semi-serial bleeding for plasma. Oral compound administration, via gavage, was carried out at 100 mg/kg (10 mL/kg; vehicle: 5% DMSO-95% (0.5% HPMC+0.1% Tween 80 in water)), with sampling at 5 min, 15 min, 30 min, 1, 2, 4, 6, 8 and 24 hours, i.e., 9 time points in total (N=3/time point), using semi-serial bleeding for plasma.
(§2) For both intravenous and oral routes, the mice were restrained manually at the designated time points, with ca. 110 μL of blood being taken into K2EDTA tubes via the facial vein. Blood samples were put on ice and centrifuged to obtain plasma samples from which the concentration at each time point was measured by LC-MS/MS.

The next data set concerns NRF2. The data set can be described thus: NRF2 +/-GSH activation assay (DiscoverX PathHunter NRF2 translocation kit, U2OS cells). In kind it is cell-based. To be noted: for Emax: read-out: NRF2 activation Emax; for EC50: read-out: NRF2 activation EC50. The method, then: Measuring Compound Activation Effects on the Anti-Inflammatory Transcription Factor NRF2 in DiscoverX PathHunter NRF2 Translocation Kit
Potency and efficacy of compounds of formula (IW-1) against the target of interest to activate NRF2 (nuclear factor erythroid 2-related factor 2) were determined using the PathHunter NRF2 translocation kit (DiscoverX). The NRF2 translocation assay was run using an engineered recombinant cell line, utilising enzyme fragment complementation to determine activation of the Keap1-NRF2 protein complex and subsequent translocation of NRF2 into the nucleus. Enzyme activity was quantified using a chemiluminescent substrate consumed following the formation of a functional enzyme upon PK-tagged NRF2 translocation into the nucleus.
The assay was run under either +/−GSH (glutathione) conditions to determine the attenuating activities of GSH against target compounds.
Additionally, a defined concentration of dimethyl fumarate was used as the ‘High’ control to normalise test compound activation responses to.
U2OS PathHunter eXpress cells were thawed from frozen prior to plating. Following plating, U2OS cells were incubated for 24 hrs (37° C./5% CO2) in commercial kit provided cell medium.
Following 24 hrs of U2OS incubation, cells were directly treated with an appropriate final concentration of compound, for −GSH conditions, or for +GSH conditions, an intermediate plate containing 6× working concentrations of compound stocks was prepared in a 6 mM working concentration of GSH solution (solubilised in sterile PBS). Following a 30 minute compound-GSH pre-incubation (37° C./5% CO2) for +GSH treatment, plated U2OS cells were incubated with an appropriate final concentration of compound and GSH.
Following compound (+/−GSH) treatment, the U2OS plates were incubated for a further 6 hours (37° C./5% CO2) before detection reagent from the PathHunter NRF2 commercial kit was prepared and added to test plates according to the manufacturer's instructions. Subsequently, the luminescence signal detection in a microplate reader was measured (PHERAstar®, BMG Labtech).
Percentage activation was calculated by normalising the sample data to the high and low controls used within each plate (+/−DMF). Percentage activation/response was then plotted against compound concentration and the 50% activation concentration (EC50) was determined from the plotted concentration-response curve.

A short description of data set [3]: Mouse pharmacokinetic study, oral administration. In kind it is in vivo. To be noted: male, C57BL/6, mouse, plasma, po, 100 mg/kg, plasma, male C57BL/6 mice, oral gavage 100 mg/kg. The method, then: as §1, §2
Where [4] appears, read: Homo sapiens, PMA-differentiated THP-1 cells, LPS 24 hr then Nigericin 1 hour.
Setting [5] is: Homo sapiens, THP-1, PMA-differentiated THP-1 cells, LPS 24 hr then Nigericin 1 hour.
Where [6] appears, read: Homo sapiens, U2OS, normalised to dimethyl fumarate 'High' control, GSH condition not stated in Table 5.
The mark [7] stands for this setting: Homo sapiens, U2OS PathHunter cells, 6 hours, GSH condition not stated in Table 5.

One may read the IC50 as the concentration at which inhibition is half-maximal. Consider `C=C(CC(=O)OC12CC3CC(CC(C3)C1)C2)C(=O)OCC(=O)O` [Example 172, 2-((4-((-adamantan-1-yl)oxy)-2-methylene-4-oxobutanoyl)oxy)acetic Acid], for which, in data set [1] (setting [4]), the IC50 amounted to 23.8 µM. In data set [2], the concentration at 0.05 h came to 23.7 µg/mL, the concentration at 0.133 h is 11.3 µg/mL, the concentration at 0.25 h came out at 2.64 µg/mL and the concentration at 0.5 h is 1.21 µg/mL. Besides, in data set [2], the concentration at 1 h came out at 0.075 µg/mL, the concentration at 2 h was determined as 0.0099 µg/mL, the concentration at 4 h worked out at 0.0061 µg/mL and the concentration at 6 h was below 0.004 µg/mL. Moreover, in data set [2], the concentration at 8 h is below 0.004 µg/mL.
What is called Emax is the maximal effect, on the per cent scale that the assay sets. What is called EC50 is the concentration at which the effect is half-maximal. Turning to `C=C(CC(=O)OC1CCCCCCC1)C(=O)OC1(CC(=O)OCC)COC1` [Example 137, 4-cyclooctyl 1-(3-(2-ethoxy-2-oxoethyl)oxetan-3-yl) 2-methylenesuccinate], the IC50 in data set [1] (setting [5]) worked out at 5.7 µM. In addition, in the data set with NRF2 (setting [6]), the Emax was 96%. In addition, in the data set with NRF2 (setting [7]), the EC50 came to 4.2 µM.
Regarding `C=C(CC(=O)O[C@H]1[C@@H]2CC[C@H]1CN(S(C)(=O)=O)C2)C(=O)O[C@H]1[C@@H]2CC[C@H]1CN(S(C)(=O)=O)C2` [Example 156, bis((endo)-3-(methylsulfonyl)-3-azabicyclo[3.2.1]octan-8-yl) 2-methylenesuccinate], in data set [1], the IC50 came out at 27.9 µM. Further, in the data set with NRF2 (U2OS PathHunter cells, 6 hours, GSH condition not stated in Table 5), the EC50 turned out to be 47.9 µM. Moreover, the “NRF2 activation Emax” value with NRF2 (normalised to dimethyl fumarate 'High' control, GSH condition not stated in Table 5) is on record as 63%.
Regarding `C=C(CC(=O)OC1CC2(CCC2)C1)C(=O)OCC(O)(O)C(F)(F)F` [Example 160, 4-spiro[3.3]heptan-2-yl 1-(3,3,3-trifluoro-2,2-dihydroxypropyl) 2-methylenesuccinate Hydrate], the IC50 in data set [1] (setting [4]) amounted to 8.1 µM. Also, the EC50 in the data set on NRF2 (Homo sapiens, U2OS, 6 h) was 72.6 µM. For the same compound, the Emax in the data set with NRF2 (Homo sapiens, U2OS) came to 7%.
As to `C=C(CC(=O)OC1CCCCCC1)C(=O)OCc1nn[nH]n1` [Example 162, 1-(2H-tetrazol-5-yl)methyl 4-cycloheptyl 2-methylenesuccinate], the IC50 in data set [1] (setting [5]) was 14.7 µM. Further, the Emax in the data set on NRF2 (setting [6]) was determined as 164%. Also, the EC50 with NRF2 (setting [7]) came out at 31.3 µM.
For `C=C(CC(=O)O[C@H](C)CCCCCC)C(=O)OCCc1nnn[nH]1` [Example 135, (R)-1-(2-(1H-tetrazol-5-yl)ethyl) 4-octan-2-yl 2-methylenesuccinate] the same measures were 4.2 µM, 157% and 11.1 µM.
The matching figures for `C=C(CC(=O)OC1CCCCC1)C(=O)OCCc1nnn[nH]1` [Example 128, 1-(2-(1H-tetrazol-5-yl)ethyl) 4-cyclohexyl 2-methylenesuccinate]: 32.7 µM, 104% and 38 µM.
As for `C=C(CC(=O)OC(CCCC)CCCC)C(=O)OCC(=O)O` [Example 175, 2-((2-methylene-4-(nonan-5-yloxy)-4-oxobutanoyl)oxy)acetic acid], the IC50 in data set [1] (setting [5]) is 7.6 µM. Further, in data set [2], the concentration at 0.05 h was 27.5 µg/mL, the concentration at 0.133 h was found to be 11.7 µg/mL, the concentration at 0.25 h came to 6.11 µg/mL and the concentration at 0.5 h was 1.19 µg/mL. For the same compound, in data set [2], the concentration at 1 h was 0.181 µg/mL, the concentration at 2 h was determined as 0.032 µg/mL, the concentration at 4 h is below 0.004 µg/mL and the concentration at 6 h was below 0.004 µg/mL. In data set [2], the concentration at 8 h is below 0.004 µg/mL. The concentration at 0.083 h in data set [3] (0.083 h, read-out: Parent compound concentrations following oral administration, Time 0.083 h) turned out to be 39.1 µg/mL. For the same compound, the concentration at 0.25 h in data set [3] (0.25 h, read-out: Parent compound concentrations following oral administration, Time 0.25 h) stood at 19.5 µg/mL. Besides, the concentration at 0.5 h in data set [3] (0.5 h, read-out: Parent compound concentrations following oral administration, Time 0.5 h) stood at 18.2 µg/mL. In addition, the concentration at 1 h in data set [3] (1 h, read-out: Parent compound concentrations following oral administration, Time 1 h) was 5.52 µg/mL. Also, the concentration at 2 h in data set [3] (2 h, read-out: Parent compound concentrations following oral administration, Time 2 h) was found to be 1.41 µg/mL. Further, the concentration at 4 h in data set [3] (4 h, read-out: Parent compound concentrations following oral administration, Time 4 h) came to 2 µg/mL. In data set [3] (6 h, read-out: Parent compound concentrations following oral administration, Time 6 h), the concentration at 6 h amounted to 0.784 µg/mL. Moreover, the concentration at 8 h in data set [3] (8 h, read-out: Parent compound concentrations following oral administration, Time 8 h) worked out at 0.231 µg/mL. For the same compound, the concentration at 24 h in data set [3] (24 h, read-out: Parent compound concentrations following oral administration, Time 24 h) is below 0.004 µg/mL.

Source of the values: US12390437B2, “Itaconic acid derivatives and uses thereof intreating an inflammatory disease or a disease associated with an undesirable immune response” (Sitryx Therapeutics Limited, priority 2019, dated 2025).
